Read-outs that look alike come from different tables or passages of the source. Blank lines part the entries; values can stand above or below the molecule they belong to. Numbered stars: 1 amine (or outer) side, 2 acyl side, 3 side chain; on linkers, the order of the positions; unused ones are H or OH. Square brackets hold non-standard residues; d marks the D form. Side chains are listed from the residue outwards. * marks the point of attachment. C18 diacid = O=C(O)CCCCCCCCCCCCCCCCC(=O)*; γGlu = O=C(O)[C@H](CCC(=O)[*:2])N[*:1]; Chem. 28 = not defined here; AEEA = NCCOCCOCC(=O)O; Aib = CC(C)(N)C(=O)O
Key:
[1] = biological target: T1, human GIP receptor (hGIPR) (Homo sapiens, UniProt P48546); experiment: GIP receptor assay, method A (CRE-luciferase reporter, BHK cells); type: cell-based
T1 construct: expressed in transfected cells
T1 sequence (P48546 22-466): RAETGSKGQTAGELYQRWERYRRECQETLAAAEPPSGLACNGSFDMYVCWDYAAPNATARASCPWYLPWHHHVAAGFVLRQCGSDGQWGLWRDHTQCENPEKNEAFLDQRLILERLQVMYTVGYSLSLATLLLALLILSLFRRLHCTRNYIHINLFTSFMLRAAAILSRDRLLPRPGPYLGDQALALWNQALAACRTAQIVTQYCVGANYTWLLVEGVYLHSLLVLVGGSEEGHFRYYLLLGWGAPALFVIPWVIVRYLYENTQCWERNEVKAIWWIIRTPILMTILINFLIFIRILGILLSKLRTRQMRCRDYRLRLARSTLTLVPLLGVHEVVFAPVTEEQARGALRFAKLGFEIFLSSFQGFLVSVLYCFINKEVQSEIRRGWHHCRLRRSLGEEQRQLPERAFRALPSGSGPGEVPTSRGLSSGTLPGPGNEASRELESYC
Summary of the method: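 BHK cells co-expressing hGIPR and a CRE-luciferase reporter, plated 21-23 h before assay, stimulated 3 h at 37 °C with compounds (7-point 10-fold titration, duplicates) in ovalbumin-containing DMEM buffer with or without 1% HSA final. Luminescence read; EC50 (pM) from four-parameter logistic fit with shared Hill slope.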

[2] = biological target: T2, human amylin receptor (hAMYR3) (Homo sapiens, UniProt O60896+P30988); experiment: Amylin receptor assay, method A (CRE-luciferase reporter, BHK cells); type: cell-based
T2 construct: host or cells: BHK cells (Hollex-1 line expressing hCTR(a) and CRE-Luc), further transfected with human RAMP3

[3] = biological target: T3, human GLP-1 receptor (hGLP-1R) (Homo sapiens, UniProt P43220); experiment: GLP-1 receptor assay, method A (CRE-luciferase reporter, BHK cells); type: cell-based
T3 construct: expressed in transfected cells
T3 sequence (P43220 24-463): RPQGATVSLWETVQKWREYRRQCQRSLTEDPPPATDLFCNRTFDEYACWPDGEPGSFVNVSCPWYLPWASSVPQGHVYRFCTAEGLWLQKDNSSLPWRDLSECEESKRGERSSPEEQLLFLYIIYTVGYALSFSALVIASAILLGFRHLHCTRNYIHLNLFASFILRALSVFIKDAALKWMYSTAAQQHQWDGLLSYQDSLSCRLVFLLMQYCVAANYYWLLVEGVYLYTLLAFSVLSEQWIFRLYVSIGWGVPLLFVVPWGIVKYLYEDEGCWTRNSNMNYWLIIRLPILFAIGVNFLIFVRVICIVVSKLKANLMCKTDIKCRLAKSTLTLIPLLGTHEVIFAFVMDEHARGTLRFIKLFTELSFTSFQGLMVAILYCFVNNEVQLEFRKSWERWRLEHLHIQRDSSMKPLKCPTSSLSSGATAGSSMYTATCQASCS
Summary of the method: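 Run in parallel with no HSA and with 1% (w/v) HSA to gauge albumin effects; assay buffer also held 1% ovalbumin, 10 mM HEPES and 0.1% Pluronic F-68. Thawed hGLP-1R BHK CRE-Luc cells incubated 3 h at 37 °C, then luciferase luminescence measured (steadylite Plus).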

human GLP-1 receptor = human GLP-1 receptor (human, UniProt P43220 24-463); experiment: cell-based or functional assay
[4] = biological target: T4, human amylin-3(a) receptor (human, UniProt P30988 25-474; O60896 24-148); experiment: cell-based or functional assay
T4 sequence (looked up) 1: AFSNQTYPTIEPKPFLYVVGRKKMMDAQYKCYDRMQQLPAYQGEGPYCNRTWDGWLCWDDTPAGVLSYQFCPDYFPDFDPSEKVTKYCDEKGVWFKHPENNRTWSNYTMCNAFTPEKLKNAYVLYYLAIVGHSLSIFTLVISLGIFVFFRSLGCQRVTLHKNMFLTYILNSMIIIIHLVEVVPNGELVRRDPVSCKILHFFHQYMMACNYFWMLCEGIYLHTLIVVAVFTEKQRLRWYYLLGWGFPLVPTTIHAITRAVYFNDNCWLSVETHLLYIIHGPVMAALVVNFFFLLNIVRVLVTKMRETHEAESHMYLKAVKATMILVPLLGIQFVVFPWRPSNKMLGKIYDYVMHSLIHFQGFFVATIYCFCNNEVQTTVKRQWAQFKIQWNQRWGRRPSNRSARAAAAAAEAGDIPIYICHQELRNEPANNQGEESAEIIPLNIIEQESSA
T4 sequence (looked up) 2: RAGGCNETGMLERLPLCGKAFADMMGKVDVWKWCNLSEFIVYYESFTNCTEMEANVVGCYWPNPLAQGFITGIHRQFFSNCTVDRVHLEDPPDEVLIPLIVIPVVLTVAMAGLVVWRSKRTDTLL

human GIP receptor = biological target: T5, human GIP receptor (human, UniProt P48546 22-466); experiment: cell-based or functional assay
T5 sequence (looked up): T1 sequence (P48546 22-466)

[5] = hGIPR Potency, 1% HSA, EC50, method A, in the presence of 1% HSA
[6] = method A, absence of HSA, read-out: hGIPR Potency, no HSA, EC50
[7] = hAMYR3 Potency, 1% HSA, EC50, method A, in the presence of 1% HSA
[8] = method A, absence of HSA, read-out: hAMYR3 Potency, no HSA, EC50
[9] = hGLP-1R Potency, 1% HSA, EC50, method A, in the presence of 1% HSA
[10] = method A, absence of HSA, read-out: hGLP-1R Potency, no HSA, EC50

- hGLP-1R Potency, no HSA, EC50 [pM] (human GLP-1 receptor): 11.3 pM
- hAMYR3 Potency, no HSA, EC50 [pM] [4]: 10.9 pM
- hGIPR Potency, no HSA, EC50 [pM] (human GIP receptor): 35.8 pM
B1: Compound 22 (peptide)
peptide: H[Aib]HGTFTSDYSILLEEQAAREFIEWLLAGGPSK(Chem. 28)GAPPPSLAQTLAQTLASELSTAALGRLSAELHELATLPRTETGSGSP-NH2
modifications: reading uncertain

- hGLP-1R Potency, no HSA, EC50 [pM] (human GLP-1 receptor): 23.3 pM
- hAMYR3 Potency, no HSA, EC50 [pM] [4]: 5.49 pM
- hGIPR Potency, no HSA, EC50 [pM] (human GIP receptor): 1.63 pM
B2: Compound 40 (peptide)
peptide: Y[Aib]EGTFTSDYSILLEEQAAREFIEWLLAGGPSK(Chem. 28)GGGGEGGGEGEASHLSTAQTQRLSAELHELATLPRTETGSGSP-NH2
modifications: reading uncertain; also: VARIANT 50 Aib (position 50 is T), mods: Aib at 2

- hGLP-1R Potency, no HSA, EC50 [pM] (human GLP-1 receptor): 41.2 pM
- hAMYR3 Potency, no HSA, EC50 [pM] [4]: 12 pM
- hGIPR Potency, no HSA, EC50 [pM] (human GIP receptor): 8.63 pM
B4: Compound 21 (peptide)
peptide: Y[Aib]EGTFTSDYSILLEEQAAREFIEWLLAGGPSK(Chem. 28)GALAQTLAQTLASELSTAALGRLSAELHELATLPRTETGSGSP-NH2
modifications: reading uncertain

- hGLP-1R Potency, no HSA, EC50 [pM] (human GLP-1 receptor): 32.1 pM
- hAMYR3 Potency, no HSA, EC50 [pM] [4]: 10.3 pM
- hGIPR Potency, no HSA, EC50 [pM] (human GIP receptor): 3.11 pM
B5: Compound 33 (peptide)
peptide: Y[Aib]EGTFTSDYSILLEEQAAREFIEWLLAGGPSK(Chem. 28)GAPPEASELSTAALGRLSAELHELATLPRTETGSGSP-NH2
modifications: reading uncertain

- hGLP-1R Potency, no HSA, EC50 [pM] (human GLP-1 receptor): 28.8 pM
- hAMYR3 Potency, no HSA, EC50 [pM] [4]: 3.02 pM
- hGIPR Potency, no HSA, EC50 [pM] (human GIP receptor): 5.56 pM
B6: Compound 54 (peptide)
peptide: Y[Aib]EGTFTSDYSILLEEQAAREFIEWLLAGGPSSGAGQAPGQAPGASK(Chem. 28)LSTAQTQRLSAELHRLATLPRTETGSGSP-NH2
modifications: reading uncertain

Further lines, the molecule ahead of its results:

Molecule: Y[Aib]EGTFTSDYSILLEEQAAREFIEWLLAGGPSSGALQAPGQAPLASHLSTAQTARLSAELHK([AEEA-AEEA-γGlu-C18 diacid])LATLPRTETGSGSP-NH2 [Compound 105]
- EC50 [1, 5]: 12.5 pM
- EC50 [1, 6]: 3.08 pM
- EC50 [2, 7]: 113 pM
- EC50 [2, 8]: 2.88 pM
- EC50 [3, 9]: 48.9 pM
- EC50 [3, 10]: 12.6 pM

Molecule: H[Aib]HGTFTSDYSILLEEQAAREFIEWLLAGGPSRGAPPPSGGGEASELSTAALGRLSAELHK([AEEA-AEEA-γGlu-C18 diacid])LATLPRTETGSGSP-NH2 [Compound 70]
- EC50 [1, 5]: 19.1 pM
- EC50 [1, 6]: 5.89 pM
- EC50 [2, 7]: 59.4 pM
- EC50 [2, 8]: 4.53 pM
- EC50 [3, 9]: 18.4 pM
- EC50 [3, 10]: 3.48 pM

Molecule: Y[Aib]EGTFTSDYSILLEEQAAREFIEWLLAGGPSRGAPPPSGGGEASHLSTQTQGRLSAELHK([AEEA-AEEA-γGlu-C18 diacid])LATLPRTETGSGSP-NH2 [Compound 72]
- EC50 [1, 5]: 9.79 pM
- EC50 [1, 6]: 2.12 pM
- EC50 [2, 7]: 589 pM
- EC50 [2, 8]: 6.57 pM
- EC50 [3, 9]: 41.7 pM
- EC50 [3, 10]: 13.1 pM

Molecule: H[Aib]HGTFTSDYSILLEEQAAREFIEWLLAGGPSK([AEEA-AEEA-γGlu-C18 diacid])GALAQTLGTNEASELSTAALGRLSAELHRLATLPRTETGSGSP-NH2 [Compound 44]
- EC50 [1, 6]: 6.3 pM
- EC50 [2, 8]: 3.8 pM
- EC50 [3, 10]: 3.68 pM

B3: Compound 19 (peptide)
peptide: Y[Aib]EGTFTSDYSILLEEQAAREFIEWLLAGGPSK(Chem. 28)GEASELSTAALGRLSAELHRLATLPRTETGSGSP-NH2
modifications: reading uncertain
- hGLP-1R Potency, no HSA, EC50 [pM] (human GLP-1 receptor): 57.9 pM
- hAMYR3 Potency, no HSA, EC50 [pM] [4]: 4.24 pM
- hGIPR Potency, no HSA, EC50 [pM] (human GIP receptor): 9.44 pM
